# Measurements: patent publication US11911394B2, “Compound and method for the prevention of transmission of influenza virus” (Hoffmann-La Roche Inc., priority 2019, dated 2024)
# Where two headings read alike, the source gives them in different places.
# Experiments:
# Format in all cases: in vivo
# [1] = system: Influenza A/Perth/265/2009 H1N1pdm09 virus; assay: Example 2 ferret contact transmission study, TCID50 assay of nasal wash; settings: for treated donors TCID50-positive (shedding detectable infectious virus) at donor endpoint: Example 2, all experiment schedules (Experiments 1-3); for recipient ferrets shedding detectable infectious virus (TCID50) following contact exposure to donor: donor treated 1 DPI; for recipient ferrets shedding detectable infectious virus (TCID50) following contact exposure to donor / donors shedding detectable infectious virus (TCID50) at 3 DPI endpoint / donors shedding detectable infectious virus (TCID50) at 4 DPI endpoint / ferrets shedding infectious virus (TCID50), FIG. 13A recipient results / donors shedding infectious virus (TCID50) at 4 DPI endpoint: positive/total; for donors shedding detectable infectious virus (TCID50) at 3 DPI endpoint / donors shedding detectable infectious virus (TCID50) at 4 DPI endpoint: treatment 1 DPI; for donor group titer (TCID50) compared to placebo group: baloxavir at 2 DPI (p≤0.05), 3 DPI and 4 DPI (p≤0.001), oseltamivir on 2-4 DPI; for ferrets shedding infectious virus (TCID50), FIG. 13A recipient results: donor treated 2 DPI, printed as donors at 4 DPI endpoint; for donors shedding infectious virus (TCID50) at 4 DPI endpoint: treatment 2 DPI; for effect of donor treatment on contact transmission to naïve ferrets: Example 2 Experiments 1-3
# [2] = system: A/Perth/265/2009 virus; assay: Example 2 ferret contact transmission study, serology (HI assay) of recipient sera; settings: for recipients demonstrating antibody responses to donor virus (serology): positive/total
# Source text: Sera were collected from endpoint recipient blood samples by centrifugation, and non-specific inhibitors of agglutination were removed by treatment with receptor-destroying enzyme (RDE) (Denka Seiken) according to manufacturer's instructions. Treated sera were adsorbed with turkey RBCs prior to HI assay to remove non-specific agglutination factors. Briefly, sera (initially 1:20 dilution) were serially diluted twofold in PBS in V-bottom 96-well plates (final row left as PBS negative control). A/Perth/265/2009 virus adjusted to 4 haemagglutination units in 25 μL was mixed to all sample wells for 1 hr incubation at room temperature, followed by 45 min incubation of 1% turkey RBC. […] HI titre was calculated as the reciprocal of the highest serum dilution at which agglutination was inhibited.
# This study consisted of three separate Experiments using different schedules of antiviral treatment and timing of naïve animal co-housing. In each experiment, twenty-four ferrets were randomly assigned to three groups (n=8): BXA, OST and placebo. Within each group, n=4 ferrets were designated as treated donor ferrets, and n=4 as naïve recipients. On 0 DPI (days post inoculation) for each experiment, all donor ferrets (each individually housed) were intranasally inoculated with influenza A/Perth/265/2009 at […] tissue culture infective doses (TCID50) in 40 μL of phosphate-buffered saline (PBS). As described above, donors in the BXA and placebo groups received a single antiviral treatment, whereas OST-group donors were treated daily until endpoint (excluding cull day). At the designated time point, naïve recipient ferrets were co-housed with treated donor ferrets (1:1 per cage) for a contact exposure period of 48 hr.
# (§1) Experiment 2: Antiviral treatment commenced at 1 DPI, and recipient co-housing was delayed until 24 hr following treatment (2 DPI). Body weight and temperature were monitored daily from all animals. Daily nasal wash samples were collected using 1 mL of PBS from 1 DPI to 4 DPI for donor animals, and 1 DPE to 10 DPE for recipient animals. Donors were sacrificed at 4 DPI (2 DPE), and blood was collected from BXA- and placebo-treated ferrets by cardiac puncture. Recipients were maintained until 16 DPE, at which time blood was collected by cardiac puncture.
# as §1, with “Experiment 3:” for “Experiment 2:”, “at 2” for “at 1”, “and recipients were co-housed immediately afterwards.” for “and recipient co-housing was delayed until 24 hr following treatment (2 DPI).”
# [3] = Example 2 antiviral pharmacokinetic analysis, endpoint donor plasma; settings: ferret, sc, 4 mg/kg, 4 mg/kg s.c., read-out: baloxavir in plasma ±SD
# Procedure: The active form baloxavir acid (S-033447, hereafter BXA) and pro-drug oseltamivir phosphate (hereafter OST) was kindly provided by Shionogi & Co., Ltd., Japan. The vehicle for BXA delivery was methyl cellulose (Sigma-Aldrich, Australia) in 0.5 w/v % aqueous solution prepared with sterile water (hereafter MC solution). BXA in suspension with MC solution (1 mg/mL) was prepared using an agate mortar and pestle, and was delivered to reversibly anaesthetised animals in a single treatment consisting of 4 subcutaneous injections at 4 locations on the dorsal region (total dose 4 mg/kg per animal). Animals in the placebo group were dosed identically using MC solution (1 mL/kg) alone. OST doses (10 mg/mL) were prepared in sugar solution (1 g/mL) and delivered bis in die (8 hr interval) to non-sedated ferrets by the oral route (total dose 10 mg/kg/day).
# Endpoint BXA and placebo-treated donor blood samples were collected in heparinised tubes, and plasma isolated by centrifugation. Plasma samples were stored at −80° C. until transport to analytical facilities at Shionogi & Co., Ltd.
# Experiment 1: Antiviral treatment for all donors commenced at 1 DPI, and naïve recipient ferrets were co-housed immediately following treatment. Body weight and temperature were monitored daily from all animals. Daily nasal wash samples were collected 1 mL of PBS from 1 DPI to 3 DPI for donor animals, and 1 day post exposure (DPE) to 10 DPE for recipient animals. Donors were sacrificed at 3 DPI (2 DPE), and blood was collected from BXA- and placebo-treated ferrets by cardiac puncture. Recipients were sacrificed at 10 DPE.
# Experiment 2: Antiviral treatment commenced at 1 DPI, and recipient co-housing was delayed until 24 hr following treatment (2 DPI). Body weight and temperature were monitored daily from all animals. […]
# Experiment 3: Antiviral treatment commenced at 2 DPI, and recipients were co-housed immediately afterwards. Body weight and temperature were monitored daily from all animals. […]
# [4] = Example 2 Experiment 1, baloxavir at 2 DPI (p≤0.05) and 3 DPI (p≤0.001)
# [5] = Example 2 Experiment 1, co-housing 1 DPI
# [6] = Example 2 Experiment 2, co-housing 2 DPI
# [7] = Example 2 Experiment 3, baloxavir at 3 and 4 DPI (p≤0.001), oseltamivir on 3 DPI (p≤0.05)
# [8] = Example 2 Experiment 3, co-housing 2 DPI
Compound,treated donors TCID50-positive (shedding detectable infectious virus) at donor endpoint [1],"donor group titer (TCID50) compared to placebo-group [1, 4]","recipient ferrets shedding detectable infectious virus (TCID50) following contact exposure to donor [1, 5]",donors shedding detectable infectious virus (TCID50) at 3 DPI endpoint ([1]; Example 2 Experiment 1),donor group titer (TCID50) compared to placebo group ([1]; Example 2 Experiment 2),"recipient ferrets shedding detectable infectious virus (TCID50) following contact exposure to donor [1, 6]",donors shedding detectable infectious virus (TCID50) at 4 DPI endpoint ([1]; Example 2 Experiment 2),"donor group titer (TCID50) compared to placebo-group [1, 7]","ferrets shedding infectious virus (TCID50), FIG. 13A recipient results [1, 8]",donors shedding infectious virus (TCID50) at 4 DPI endpoint ([1]; Example 2 Experiment 3),effect of donor treatment on contact transmission to naïve ferrets [1],recipients demonstrating antibody responses to donor virus (serology) ([2]; Example 2 Experiment 2),further results
"O=C1c2c(O)c(=O)ccn2N([C@@H]2c3ccccc3SCc3c2ccc(F)c3F)[C@@H]2COCCN12 [baloxavir, baloxavir acid]",0/4 and No,significantly lower,1/4,0/4,significantly lower,1/4,0/4,significantly lower,2/4,0/4,reduces,2/4,"mean viral titres compared to the placebo-group ([1]; Example 2, 24 hours following treatment, all experiment conditions (p≤0.05)): significantly reduced; frequency of infectious viral shedding in recipients ([1]; Example 2, donor treatment at 1 DPI): 25%; frequency of infectious viral shedding in recipients ([1]; Example 2, donor treatment at 2 DPI): 50%; infectious virus titers in the URT compared to both placebo and oseltamivir ([1]; Example 2, three independent experiments, single treatment of infected ferrets): significantly reduced; reduction in transmission ([1]; Example 2, treatment 48 hr post infection): 50%; reduction of transmission ([1]; Example 2, treatment within 24 hr of infection): 75%; donor group titer (TCID50) compared to oseltamivir group ([1]; Example 2 Experiment 2, 3-4 DPI (p≤0.01)): significantly lower; donor group titer (TCID50) compared to oseltamivir-group ([1]; Example 2 Experiment 3, 4 DPI (p≤0.001)): lower; reduction of antibody responses in TCID50-negative recipients compared to titres in placebo-group recipients ([2]; Example 2 Exp. 2 and 3): 16-32 fold; reduction of antibody response in TCID50-negative ferret compared to TCID50-positive ferrets ([2]; Example 2 Experiment 2, baloxavir-group recipient): > 32 fold change; reduction of antibody titres in TCID50-negative recipients compared to TCID50-positive ferrets ([2]; Example 2 Experiment 3, TCID50-negative baloxavir-group recipients (2/4)): > 16 fold change; concentration at 48 h ([3]; Example 2 Experiment 1, 48 hours post treatment): 10.2 ± 2.8 ng/mL; concentration at 72 h ([3]; Example 2 Experiment 2, 72 hr post treatment): 12.5 ± 2.4 ng/mL; concentration at 72 h ([3]; Example 2 Experiment 3, 72 hr post treatment (so in the source)): 24.5 ± 4.03 ng/mL"
"CCOC(=O)C1=C[C@@H](OC(CC)CC)[C@H](NC(C)=O)[C@@H](N)C1 [oseltamivir, oseltamivir phosphate, reference compound]",4/4,no significant difference,4/4,4/4,no difference,4/4,4/4,significantly lower,4/4,4/4,does not reduce,4/4,"recipients demonstrating evidence of infection by TCID50, qRT-PCR and serology ([1]; Example 2, all experimental conditions): 100%"
